Reference: patent US10279046B2, “Eye drop composition for treating ocular inflammatory disease and preparation method therefor” (CATHOLIC UNIVERSITY INDUSTRY-ACADEMIC COOPERATION FOUNDATION, priority 2013, dated 2019)

System: corneal damage model (alkali burn)
Assay: Corneal damage model (alkali burn) with NaOH: corneal edema and inflammatory cells (hematoxylin-eosin and F4/80 staining)
Type: in vivo, rat (Sprague Dawley)
Conditions: 0.1 mg/ml (0.01%) sulfasalazine, twice a day
Experimental: A white […] (Sprague Dawley, 300 g, male) was used as an animal, and a corneal damage model (alkali burn) due to a chemical drug using NaOH was used. A paper disk of 3 mm was dipped in a 0.1 N NaOH solution (50 ul), and the cornea was covered with the paper disk for 30 seconds to induce the cornea to be damaged. The inflammation reaction in the cornea was confirmed by performing hematoxylin eosin staining and immunostaining on the F4/80 antigen. The analysis of corneal edema was performed using a ratio of corneal epithelium and corneal stroma.
After the damage to the cornea, the solubilized sulfasalazine and the sulfasalazine-hyaluronic acid eye drop prepared in the Example 1 were administered twice a day, respectively. 0.1% hyaluronic acid was administered to the control group.
Three days after the damage to the cornea, the eyeball was removed and a paraffin block was prepared to make a tissue slice, and the hematoxylineosin staining and the immunostaining on the F4/80 antigen as a macrophage marker were performed.
The analysis on the inflammatory cells was performed with respect to the number of macrophages (F4/80 positive cells) present in the cornea.

For O=C(O)c1cc(/N=N/c2ccc(S(=O)(=O)Nc3ccccn3)cc2)ccc1O [sulfasalazine solution, sulfasalazine], the “number of macrophages (F4/80 positive cells) present in the cornea” value (after inducement of inflammation 31.5±4.9) was 21.3±5.5 and the “ratio of corneal epithelium and stroma (corneal edema)” value (three days after damage, normal 4.6±1, after inducement of inflammation 10±2.5) was 7.1±2.1.
